Structures are written as SMILES. Some results are limits rather than exact numbers.

Broadly, the Emax is the greatest response seen or fitted, relative to the assay's reference. One may read the EC50 as the concentration that produces a half-maximal response.

Chain of recombinant human AMPK complex 1 (containing α1β1γ1) (Q13131 whole entry): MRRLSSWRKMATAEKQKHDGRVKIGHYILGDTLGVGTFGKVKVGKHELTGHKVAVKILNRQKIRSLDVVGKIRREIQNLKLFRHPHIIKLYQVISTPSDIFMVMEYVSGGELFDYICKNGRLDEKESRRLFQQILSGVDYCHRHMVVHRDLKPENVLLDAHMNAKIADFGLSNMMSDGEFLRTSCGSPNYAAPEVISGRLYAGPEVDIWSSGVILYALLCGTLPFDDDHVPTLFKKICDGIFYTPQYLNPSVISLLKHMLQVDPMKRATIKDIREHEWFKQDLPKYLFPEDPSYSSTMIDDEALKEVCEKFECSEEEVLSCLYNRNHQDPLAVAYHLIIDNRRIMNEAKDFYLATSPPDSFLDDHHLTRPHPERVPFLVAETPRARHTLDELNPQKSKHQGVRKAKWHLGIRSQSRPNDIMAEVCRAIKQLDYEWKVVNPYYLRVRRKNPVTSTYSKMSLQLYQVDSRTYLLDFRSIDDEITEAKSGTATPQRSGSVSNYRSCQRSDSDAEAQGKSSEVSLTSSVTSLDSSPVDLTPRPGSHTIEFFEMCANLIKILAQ
Chain of recombinant human AMPK complex 1 (containing α1β1γ1) (Q9Y478 whole entry): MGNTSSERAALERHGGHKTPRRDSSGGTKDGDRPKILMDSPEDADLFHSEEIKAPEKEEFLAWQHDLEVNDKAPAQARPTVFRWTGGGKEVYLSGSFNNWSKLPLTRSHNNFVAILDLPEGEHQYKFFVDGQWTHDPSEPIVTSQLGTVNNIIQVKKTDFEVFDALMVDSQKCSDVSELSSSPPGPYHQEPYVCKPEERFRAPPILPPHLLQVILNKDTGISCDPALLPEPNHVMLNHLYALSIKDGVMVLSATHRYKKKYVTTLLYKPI
Chain of recombinant human AMPK complex 1 (containing α1β1γ1) (P54619 whole entry partner): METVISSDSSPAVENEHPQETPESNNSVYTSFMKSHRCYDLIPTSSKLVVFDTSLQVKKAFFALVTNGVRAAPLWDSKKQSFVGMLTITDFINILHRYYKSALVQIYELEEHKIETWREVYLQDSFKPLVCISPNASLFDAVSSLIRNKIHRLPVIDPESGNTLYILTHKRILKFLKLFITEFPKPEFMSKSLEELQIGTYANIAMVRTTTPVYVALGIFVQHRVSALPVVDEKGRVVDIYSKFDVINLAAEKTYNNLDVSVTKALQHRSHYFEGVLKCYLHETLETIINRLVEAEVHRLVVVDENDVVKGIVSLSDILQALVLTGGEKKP

The target in the first assay is recombinant human AMPK complex 1 (containing α1β1γ1) (Homo sapiens, UniProt Q13131+Q9Y478). Description: In vitro AMPK activation assay ([…]). It counts as biochemical. Conditions: recombinant human AMPK complex 1 (α1β1γ1); basal activity subtracted, expressed as % maximum AMP activation. The protocol:
The recombinant human AMPK complex 1 (containing α1β1γ1) was obtained from baculovirus expression system. Recombinant viruses were generated by cotransfection of AMPK/pBacPak9 clones with Baculogold baculovirus DNA (Pharmingen) in spodoptera frugiperda 21 cells according to the manufacturer's instructions. Each round of virus amplification was performed for 5 days in Grace's medium containing 10% serum. Virus that had been subjected to three rounds of amplification was used for all protein production procedures. To express the AMPK complex, sf21 cells were adapted to serum free medium (SF900 II, Invitrogen) by sequential dilution from serum containing stocks into SF900II medium and maintained in shaker flasks at 90 rpm at 27° C. The recombinant AMPK enzyme complex was produced by triple infection, one recombinant virus for each of the subunits, in sf21 cells under serum free conditions. Cells were infected in log phase, 1×10^6 cells/ml, at a multiplicity of infection of ˜5. Cells were harvested by centrifugation at 10,000×g for 15 minutes after 72 hours of infection with viruses. The insect cell pellet from 2 liters of culture was resuspended in 50 ml lysis buffer (20 mM Tris-HCl, 50 mM NaCl, 50 mM NaF, 30 mM Na PPi, 0.25 M sucrose, 10 mM ZnCl2, 2 mM DTT, 0.4 mg/ml digitonin) and subjected to two cycles of freeze-thaw lysis in a dry-ice ethanol bath. Insoluble material was removed by centrifugation at 10,000×g and the supernatant was fractionated with use of polyethylene glycol (PEG). The protein fraction precipitating between 2.5 and 6% PEG was used for further purification using a Blue-Sepharose step (Zhou et al, J. Clin. Invest. 108, 1167-1174, 2001).
The total in vitro AMPK activation assay volume is 50 μl in a 96-well plate. The reaction mixture contained 100 μM ATP (0.5 μCi ^33P-ATP per reaction), and 50 μM SAMS ([…]) in a buffer (20 mM HEPES, pH 7.0, 5 mM MgCl2, 0.01% Brij35). The reaction was initiated with addition of the enzyme. After 30-minute incubation at 30° C., the reaction was stopped by addition of 80 μl 1% H3PO4. Aliquots (100 μl) were transferred to 96-well MultiScreen plates (MAPHNOB50; Millipore Corp., Bedford, Mass., USA). The plate was washed three times with 1% H3PO4 followed by detection in a Top-count. The counts per minute from the basal activity (the reaction without activator) was subtracted from each well and the data were expressed as % maximum AMP activation followed by EC50 calculation.
With `CCc1ccc(C#Cc2cc3nc(SCC(=O)O)[nH]c3cc2Cl)cc1` [Example 36, [6-chloro-5-(4-ethyl-phenyl-ethynyl)-1H-benzo-imidazol-2-yl-sulfanyl]-acetic acid], the Emax was above 40%.

`COc1ccc2cc(C#Cc3cc4nc(SCC(=O)O)[nH]c4cc3Cl)ccc2c1` [Example 37, [6-chloro-5-(6-methoxy-naphthalen-2-yl-ethynyl)-1H-benzo-imidazol-2-yl-sulfanyl]-acetic acid]: the Emax is above 40%.

On to `O=C(O)CSc1nc2cc(C#Cc3cccs3)c(Cl)cc2[nH]1` [Example 38, (6-chloro-5-thiophen-2-yl-ethynyl-1H-benzo-imidazol-2-yl-sulfanyl)-acetic acid], for which the maximal response (Emax) is above 40%.

For `COc1ccc(C#Cc2cc3nc(SCC(=O)O)[nH]c3cc2Cl)cc1` [Example 39, [6-chloro-5-(4-methoxy-phenyl-ethynyl)-1H-benzimidazol-2-ylsulfanyl]-acetic acid], the Emax was above 40%.

Consider `O=C(O)CSc1nc2cc(-c3ccc(OCc4ccccc4)c(F)c3)c(Cl)cc2[nH]1` [Example 40, [5-(4-Benzyloxy-3-fluoro-phenyl)-6-chloro-1H-benzimidazol-2-ylsulfanyl]-acetic acid], for which the Emax is above 40%.

With `O=C(O)CSc1nc2cc(-c3ccc(Cl)cc3)c(Cl)cc2[nH]1` [Example 41, [6-chloro-5-(4-chloro-phenyl)-1H-benzimidazol-2-ylsulfanyl]-acetic acid], the Emax is above 40%.

For the molecule `COc1ccc(-c2cc3nc(SCC(=O)O)[nH]c3cc2Cl)cc1` [Example 42, [6-chloro-5-(4-methoxy-phenyl)-1H-benzimidazol-2-ylsulfanyl]-acetic acid], the Emax was above 40%.

Take `CC(C)Cc1ccc(-c2cc3nc(SCC(=O)O)[nH]c3cc2Cl)cc1` [Example 43, [6-chloro-5-(4-isobutyl-phenyl)-1H-benzimidazol-2-ylsulfanyl]-acetic acid]: the Emax was above 40%.

Turning to `O=C(O)CSc1nc2cc(-c3ccc(OCc4ccccc4)cc3)c(Cl)cc2[nH]1` [Example 44, [5-(4-benzyl-oxy-phenyl)-6-chloro-1H-benzimidazol-2-ylsulfanyl]-acetic acid], the maximum response (Emax) is above 40%.

In the case of `CC(C)(COc1nc2cc(C#Cc3ccccc3)c(Cl)cc2[nH]1)C(=O)O` [Example 49, 3-(6-Chloro-5-phenylethynyl-1H-benzoimidazol-2-yloxy)-2,2-dimethyl-propionic acid], the Emax is above 40%.

As for `O=C(O)CCc1nc2cc(-c3ccccc3)c(Cl)cc2[nH]1` [Example 50, 3-(6-Chloro-5-phenyl-1H-benzimidazol-2-yl)-propionic acid], the Emax was above 40%.

In the case of `O=C(O)CCc1nc2cc(-c3ccc(-c4ccccc4)cc3)c(Cl)cc2[nH]1` [Example 51, 3-(5-Biphenyl-4-yl-6-chloro-1H-benzimidazol-2-yl)-propionic acid], the Emax is above 40%.

For the molecule `O=C(O)CSc1nc2cc(C#Cc3cccnc3)c(Cl)cc2[nH]1` [Example 56], the Emax is above 40%.

In the case of `O=C(O)CSc1nc2cc(C#Cc3ccccn3)c(Cl)cc2[nH]1` [Example 57], the Emax was above 40%.

Take `O=C(O)CSc1nc2cc(-c3ccc(-c4ccccc4)s3)c(Cl)cc2[nH]1` [Example 58]: the Emax is above 40%.

Consider `O=C(O)CSc1nc2cc(-c3ccc(N4CCCCC4)cc3)c(Cl)cc2[nH]1` [Example 60], for which the Emax was above 40%.

`O=C(O)CSc1nc2cc(-c3ccc(N4CCOCC4)cc3)c(Cl)cc2[nH]1` [Example 61]: the Emax is above 40%.

Take `O=C(O)CSc1nc2cc(-c3ccc(N4CCOCC4)nc3)c(Cl)cc2[nH]1` [Example 62]: the Emax is above 40%.

Regarding `O=C(O)CSc1nc2cc(-c3cc4ccccc4s3)c(Cl)cc2[nH]1` [Example 63], the Emax was above 40%.

Regarding `O=C(O)CSc1nc2cc(C#Cc3ccc(C(F)(F)F)cc3)c(Cl)cc2[nH]1` [Example 65], the Emax is above 40%.

In the case of `O=C(O)CSc1nc2cc(C#Cc3ccc(Cl)cc3)c(Cl)cc2[nH]1` [Example 67], the Emax is above 40%.

Take `O=C(O)CSc1nc2cc(C#Cc3ccc(Br)cc3)c(Cl)cc2[nH]1` [Example 68]: the Emax is above 40%.

As to `O=C(O)CSc1nc2cc(C#Cc3cc(F)cc(F)c3)c(Cl)cc2[nH]1` [Example 69], the Emax was above 40%.

As to `O=C(O)CSc1nc2cc(C#Cc3ccccc3[N+](=O)[O-])c(Cl)cc2[nH]1` [Example 70], the Emax is above 40%.

As to `O=C(O)CSc1nc2cc(-c3cccc(N4CCOCC4)n3)c(Cl)cc2[nH]1` [Example 71], the Emax is above 40%.

`O=C(O)CSc1nc2cc(-c3csc(-c4ccccc4)n3)c(Cl)cc2[nH]1` [Example 72]: the Emax was above 40%.

With `O=C(O)CSc1nc2cc(-c3ccc(-c4cnccn4)cc3)c(Cl)cc2[nH]1` [Example 73], the Emax was above 40%.

Turning to `CCc1ccc(C(=O)Cc2cc3nc(SCC(=O)O)[nH]c3cc2Cl)cc1` [Example 74], the Emax is above 40%.

For `O=C(O)CSc1nc2cc(C#Cc3ccc(C(=O)O)cc3)c(Cl)cc2[nH]1` [Example 75], the Emax is above 40%.

Take `CC(=O)Nc1ccc(C#Cc2cc3nc(SCC(=O)O)[nH]c3cc2Cl)cc1` [Example 76]: the Emax was above 40%.

In the case of `CS(=O)(=O)Nc1ccc(C#Cc2cc3nc(SCC(=O)O)[nH]c3cc2Cl)cc1` [Example 77], the maximal effect (Emax) is above 40%.

For `CCNC(=O)Nc1ccc(C#Cc2cc3nc(SCC(=O)O)[nH]c3cc2Cl)cc1` [Example 78], the Emax is above 40%.

Consider `O=C(O)CSc1nc2cc(-c3ccc(Br)cc3)c(Cl)cc2[nH]1` [Example 79], for which the Emax was above 40%.

As for `O=C(O)CSc1nc2cc(-c3ccc(C(F)(F)F)cc3)c(Cl)cc2[nH]1` [Example 81], the Emax was above 40%.

Take `CN(C)C(=O)c1ccc(C#Cc2cc3nc(SCC(=O)O)[nH]c3cc2Cl)cc1` [Example 82]: the Emax was above 40%.

Turning to `CNC(=O)c1ccc(C#Cc2cc3nc(SCC(=O)O)[nH]c3cc2Cl)cc1` [Example 83], the Emax is above 40%.

Turning to `CSc1ccc(-c2cc3nc(SCC(=O)O)[nH]c3cc2Cl)cc1` [Example 84], the Emax is above 40%.

Consider `Cc1cc(-c2cc3nc(SCC(=O)O)[nH]c3cc2Cl)ccc1Cl` [Example 85], for which the maximum response (Emax) is above 40%.

As for `C[S+]([O-])c1ccc(-c2cc3nc(SCC(=O)O)[nH]c3cc2Cl)cc1` (stereo not shown) [Example 86], the Emax was above 40%.

Still in this assay, the particulars now being: recombinant human AMPK complex 1 (α1β1γ1); read-out: EC50.
For the molecule `O=C(O)COc1nc2cc(-c3ccc(-c4ccn[nH]4)cc3)c(Cl)cc2[nH]1` [Example 45, {6-Chloro-5-[4-(2H-pyrazol-3-yl)-phenyl]-1H-benzoimidazol-2-yloxy}-acetic acid], the EC50 stood at 160 nM.

`O=C(O)COc1nc2cc(-c3ccc(-c4ccccc4)cc3)c(Cl)cc2[nH]1` [Example 46, [(5-biphenyl-4-yl-6-chloro-1H-benzimidazol-2-yl)oxy]ylacetic acid]: the concentration giving a half-maximal response (EC50) came to 128 nM.

Consider `O=C(O)COc1nc2cc(C#Cc3ccc(CO)cc3)c(Cl)cc2[nH]1` [Example 47], for which the EC50 amounted to 97 nM.

As for `O=C(O)COc1nc2cc(C#Cc3ccccc3)c(Cl)cc2[nH]1` [Example 48, (6-Chloro-5-phenylethynyl-1H-benzoimidazol-2-yloxy)-acetic acid], the EC50 came to 130 nM.

In the case of `Cn1ccc2cc(-c3cc4nc(SCC(=O)O)[nH]c4cc3Cl)ccc21` [Example 59], the EC50 amounted to 100 nM.

For the molecule `O=C(O)CSc1nc2cc(-c3ccc4[nH]ccc4c3)c(Cl)cc2[nH]1` [Example 66], the EC50 was 282 nM.

For a further assay, the system named is ob/ob and db/db mice.
Experiment: not given
The conditions noted are these: following 8 weeks of administration; cited from earlier work.
In the case of `NC(=O)c1ncn([C@@H]2O[C@H](CO)[C@@H](O)[C@H]2O)c1N` [AICAR], the blood glucose reduction is on record as 35%.

The values are drawn from patent US8563746B2, “Cyclic benzimidazole derivatives useful as anti-diabetic agents” (Merck Sharp & Dohme Corp, priority 2008, dated 2013).
